Experimental data from PubChem BioAssay (NCI).
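Test compounds were applied to cells in 96-well plates for 48 hours at 5 doses. Abbreviation: GI50, concentration required for 50% inhibition of growth. TGI denotes the concentration required for complete inhibition of growth.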

Key:
Assay in all cases: NCI-60 cell line screen, 48 h
LOX IMVI melanoma = system: LOX IMVI melanoma
RXF 393 renal = system: RXF 393 renal
COLO 205 colon = system: COLO 205 colon
786-0 renal = system: 786-0 renal
SW-620 colon = system: SW-620 colon
NCI-H23 lung = system: NCI-H23 lung
HCT-15 colon = system: HCT-15 colon
K-562 leukemia = system: K-562 leukemia
CAKI-1 renal = system: CAKI-1 renal
HT29 colon = system: HT29 colon
SF-268 CNS = system: SF-268 CNS
OVCAR-8 ovarian = system: OVCAR-8 ovarian
KM12 colon = system: KM12 colon
OVCAR-3 ovarian = system: OVCAR-3 ovarian
A498 renal = system: A498 renal
U251 CNS = system: U251 CNS
HCT-116 colon = system: HCT-116 colon
SK-MEL-28 melanoma = system: SK-MEL-28 melanoma
MOLT-4 leukemia = system: MOLT-4 leukemia
OVCAR-5 ovarian = system: OVCAR-5 ovarian
UO-31 renal = system: UO-31 renal
PC-3 prostate = system: PC-3 prostate
UACC-257 melanoma = system: UACC-257 melanoma
MCF7 breast = system: MCF7 breast
SK-MEL-5 melanoma = system: SK-MEL-5 melanoma
EKVX NSCLC = system: EKVX NSCLC
TK-10 renal = system: TK-10 renal
UACC-62 melanoma = system: UACC-62 melanoma

Cc1c(C)c2ccc(OC/C=C3\CCC(=O)O3)cc2oc1=O
TGI (LOX IMVI melanoma): 29.4 µM
GI50 (RXF 393 renal): 14.2 µM
TGI (RXF 393 renal): 28.2 µM
GI50 (COLO 205 colon): 16.4 µM
TGI (COLO 205 colon): 48.9 µM
GI50 (786-0 renal): 5.35 µM
TGI (786-0 renal): 20.8 µM
GI50 (SW-620 colon): 18 µM
TGI (SW-620 colon): 40 µM
GI50 (NCI-H23 lung): 15.4 µM
TGI (NCI-H23 lung): 29.6 µM
GI50 (HCT-15 colon): 5.4 µM
TGI (HCT-15 colon): 20.2 µM
GI50 (K-562 leukemia): 29.1 µM
TGI (K-562 leukemia): 88.7 µM
GI50 (CAKI-1 renal): 15.3 µM
TGI (CAKI-1 renal): 30.6 µM
GI50 (HT29 colon): 16.6 µM
TGI (HT29 colon): 35.3 µM
GI50 (SF-268 CNS): 17 µM
TGI (SF-268 CNS): 46.1 µM
GI50 (OVCAR-8 ovarian): 16.5 µM
TGI (OVCAR-8 ovarian): 34.8 µM
GI50 (KM12 colon): 13.8 µM
TGI (KM12 colon): 31.3 µM
GI50 (OVCAR-3 ovarian): 15.8 µM
TGI (OVCAR-3 ovarian): 30.3 µM
GI50 (A498 renal): 17.9 µM
TGI (A498 renal): 37.1 µM
GI50 (U251 CNS): 15.7 µM
TGI (U251 CNS): 29.3 µM
GI50 (HCT-116 colon): 13.3 µM
TGI (HCT-116 colon): 26.3 µM
GI50 (SK-MEL-28 melanoma): 14.3 µM
TGI (SK-MEL-28 melanoma): 28.1 µM
GI50 (MOLT-4 leukemia): 19.8 µM
TGI (MOLT-4 leukemia): > 100 µM
GI50 (OVCAR-5 ovarian): 16.5 µM
TGI (OVCAR-5 ovarian): 31.1 µM
GI50 (UO-31 renal): 10.6 µM
TGI (UO-31 renal): 22.4 µM
GI50 (PC-3 prostate): 13.4 µM
TGI (PC-3 prostate): 31 µM
GI50 (UACC-257 melanoma): 15.9 µM
TGI (UACC-257 melanoma): 31.3 µM
GI50 (MCF7 breast): 11 µM
TGI (MCF7 breast): 32.5 µM
GI50 (SK-MEL-5 melanoma): 17.4 µM
TGI (SK-MEL-5 melanoma): 32.8 µM
GI50 (EKVX NSCLC): 18.7 µM
TGI (EKVX NSCLC): 40 µM
GI50 (TK-10 renal): 9.79 µM
TGI (TK-10 renal): 23 µM
GI50 (UACC-62 melanoma): 14.5 µM
TGI (UACC-62 melanoma): 28.3 µM
